# System: VEGF mRNA expression in A549 cells
# Test: VEGF mRNA expression, quantitative real-time RT-PCR, A549
# Type: cell-based, human
# Details: A549, 6 h, increased concentration of SQAP
# Protocol: Figure 5 Effect of SQAP on FAK phosphorylation. The level of FAK phosphorylated at Y397 and Y925 was evaluated by Western blotting. (A) HUVEC cells were serum-depleted for 20 h before treatment with SQAP or vehicle for 30 min followed by treatment with or without VEGF (50 ng/mL) for 30 min. (B) HUVEC cells were cultured as stated in section A and then treated with SQAP, SQMG or SQP. (C) A549 cells were serum-deprived for 48 h before pretreatment with SQAP or vehicle followed by treatment with or without fibronectin (10 μg/mL) for 30 min. (D) A549 cells were cultured as stated in section C and then treated with SQAP, SQMG or SQP. (E–F) HUVEC and A549 cells were treated with SQAP for 6 h before adding an RNA stabilization reagent and prepared for Quantitative real-time RT-PCR.
# Total RNA was prepared using an RNeasy Mini Kit (QIAGEN Inc., Hilden, Germany) according to the manufacturer’s instructions and then reverse-transcribed to cDNA with Transcriptor First Strand cDNA Synthesis Kit (Roche Applied Science, Mnnheim, Germany). Measurement of gene expression by quantitative analysis was performed using the LightCycler system (Roche Applied Science). Quantitative real-time RT-PCR analysis of β-actin, TSP-1 and VEGF-A expression were performed using the LightCycler FastStart DNA MasterPLUS SYBR Green I system (Roche Applied Science). […]
structure (smiles),measurement,value
"CCCCCCCCCCCCCCCCCC(=O)OCCCO[C@H]1O[C@H](CS(=O)(=O)O)[C@@H](O)[C@H](O)[C@H]1O [SQAP, sulfoquynovosylacylpropanediol]","VEGF production level (mRNA, RT-PCR)",mild production decrease
